Reference: the supplement of paper PMC10307832

Experiments:
Experiment in all cases: relative viability (nuclei count vs DMSO), 5 days (fraction); higher = more cells survive
[1] = compound: Cc1ccc2nc(NCCN)c3ncc(C)n3c2c1 + CC1(C)CCC(c2ccc(Cl)cc2)=C(CN2CCN(c3ccc(C(=O)NS(=O)(=O)c4ccc(N[C@H](CCN5CCOCC5)CSc5ccccc5)c(S(=O)(=O)C(F)(F)F)c4)cc3)CC2)C1 [Navitoclax] (partner 0.5 µM)
In short: (§1)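 Lung cancer cell lines in 1536-well plates got either a single drug or a fixed anchor-drug dose together with five library-drug doses (not always all listed) in √10 steps, by pin tool, on the day after seeding. Nuclei were counted after 5 days, and relative viability is the treated-to-vehicle ratio of nuclei counts. Values are medians of duplicate plates.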

[2] = compound: Cc1ccc2nc(NCCN)c3ncc(C)n3c2c1 + CS(=O)(=O)CCNCc1ccc(-c2ccc3ncnc(Nc4ccc(OCc5cccc(F)c5)c(Cl)c4)c3c2)o1 [Lapatinib] (partner 2 µM)
In short: as §1

Salubrinal + Luminespib = compound: O=C(/C=C/c1ccccc1)NC(NC(=S)Nc1cccc2cccnc12)C(Cl)(Cl)Cl [Salubrinal] + CCNC(=O)c1noc(-c2cc(C(C)C)c(O)cc2O)c1-c1ccc(CN2CCOCC2)cc1 [Luminespib] (partner 0.01 µM)
In short: as §1

Salubrinal + Dasatinib = compound: O=C(/C=C/c1ccccc1)NC(NC(=S)Nc1cccc2cccnc12)C(Cl)(Cl)Cl [Salubrinal] + Cc1nc(Nc2ncc(C(=O)Nc3c(C)cccc3Cl)s2)cc(N2CCN(CCO)CC2)n1 [Dasatinib] (partner 0.075 µM)
In short: as §1

Cell Line: PC-14
- relative viability ([1]; first compound 0.04 µM): 0.985
- relative viability ([1]; first compound 0.1265 µM): 1.02
- relative viability ([1]; first compound 0.4 µM): 0.993
- relative viability ([1]; first compound 1.265 µM): 0.908
- relative viability ([1]; first compound 4 µM): 0.856
- relative viability ([2]; first compound 0.04 µM): 0.398
- relative viability ([2]; first compound 0.1265 µM): 0.307
- relative viability ([2]; first compound 0.4 µM): 0.41
- relative viability ([2]; first compound 1.265 µM): 0.289
- relative viability ([2]; first compound 4 µM): 0.295
- relative viability (Salubrinal + Luminespib; first compound 0.08 µM): 0.23
- relative viability (Salubrinal + Luminespib; first compound 0.253 µM): 0.118
- relative viability (Salubrinal + Luminespib; first compound 0.8 µM): 0.134
- relative viability (Salubrinal + Luminespib; first compound 2.53 µM): 0.151
- relative viability (Salubrinal + Luminespib; first compound 8 µM): 0.126
- relative viability (Salubrinal + Dasatinib; first compound 0.08 µM): 0.313
- relative viability (Salubrinal + Dasatinib; first compound 0.253 µM): 0.252
- relative viability (Salubrinal + Dasatinib; first compound 0.8 µM): 0.264
- relative viability (Salubrinal + Dasatinib; first compound 2.53 µM): 0.203
- relative viability (Salubrinal + Dasatinib; first compound 8 µM): 0.166

Cell Line: NCI-H1666
- relative viability ([1]; first compound 0.04 µM): 0.886
- relative viability ([1]; first compound 0.1265 µM): 0.922
- relative viability ([1]; first compound 0.4 µM): 0.96
- relative viability ([1]; first compound 1.265 µM): 0.89
- relative viability ([1]; first compound 4 µM): 0.776
- relative viability ([2]; first compound 0.04 µM): 0.788
- relative viability ([2]; first compound 0.1265 µM): 0.64
- relative viability ([2]; first compound 0.4 µM): 0.505
- relative viability ([2]; first compound 1.265 µM): 0.478
- relative viability ([2]; first compound 4 µM): 0.568
- relative viability (Salubrinal + Luminespib; first compound 0.08 µM): 0.984
- relative viability (Salubrinal + Luminespib; first compound 0.253 µM): 0.903
- relative viability (Salubrinal + Luminespib; first compound 0.8 µM): 0.95
- relative viability (Salubrinal + Luminespib; first compound 2.53 µM): 0.945
- relative viability (Salubrinal + Luminespib; first compound 8 µM): 1.1
- relative viability (Salubrinal + Dasatinib; first compound 0.08 µM): 0.845
- relative viability (Salubrinal + Dasatinib; first compound 0.253 µM): 0.721
- relative viability (Salubrinal + Dasatinib; first compound 0.8 µM): 0.799
- relative viability (Salubrinal + Dasatinib; first compound 2.53 µM): 0.806
- relative viability (Salubrinal + Dasatinib; first compound 8 µM): 0.613

Cell Line: NCI-H2085
- relative viability ([1]; first compound 0.04 µM): 1.27
- relative viability ([1]; first compound 0.1265 µM): 1.12
- relative viability ([1]; first compound 0.4 µM): 1.08
- relative viability ([1]; first compound 1.265 µM): 1.06
- relative viability ([1]; first compound 4 µM): 1.08
- relative viability ([2]; first compound 0.04 µM): 0.91
- relative viability ([2]; first compound 0.1265 µM): 0.771
- relative viability ([2]; first compound 0.4 µM): 0.728
- relative viability ([2]; first compound 1.265 µM): 0.785
- relative viability ([2]; first compound 4 µM): 0.817
- relative viability (Salubrinal + Luminespib; first compound 0.08 µM): 0.473
- relative viability (Salubrinal + Luminespib; first compound 0.253 µM): 0.47
- relative viability (Salubrinal + Luminespib; first compound 0.8 µM): 0.562
- relative viability (Salubrinal + Luminespib; first compound 2.53 µM): 0.366
- relative viability (Salubrinal + Luminespib; first compound 8 µM): 0.496
- relative viability (Salubrinal + Dasatinib; first compound 0.08 µM): 0.228
- relative viability (Salubrinal + Dasatinib; first compound 0.253 µM): 0.227
- relative viability (Salubrinal + Dasatinib; first compound 0.8 µM): 0.258
- relative viability (Salubrinal + Dasatinib; first compound 2.53 µM): 0.249
- relative viability (Salubrinal + Dasatinib; first compound 8 µM): 0.246

Cell Line: NCI-H1734
- relative viability ([1]; first compound 0.04 µM): 0.818
- relative viability ([1]; first compound 0.1265 µM): 0.803
- relative viability ([1]; first compound 0.4 µM): 0.8
- relative viability ([1]; first compound 1.265 µM): 0.808
- relative viability ([1]; first compound 4 µM): 0.803
- relative viability ([2]; first compound 0.04 µM): 1.11
- relative viability ([2]; first compound 0.1265 µM): 1
- relative viability ([2]; first compound 0.4 µM): 1.13
- relative viability ([2]; first compound 1.265 µM): 1.07
- relative viability ([2]; first compound 4 µM): 0.941
- relative viability (Salubrinal + Luminespib; first compound 0.08 µM): 0.174
- relative viability (Salubrinal + Luminespib; first compound 0.253 µM): 0.175
- relative viability (Salubrinal + Luminespib; first compound 0.8 µM): 0.199
- relative viability (Salubrinal + Luminespib; first compound 2.53 µM): 0.17
- relative viability (Salubrinal + Luminespib; first compound 8 µM): 0.241
- relative viability (Salubrinal + Dasatinib; first compound 0.08 µM): 0.485
- relative viability (Salubrinal + Dasatinib; first compound 0.253 µM): 0.462
- relative viability (Salubrinal + Dasatinib; first compound 0.8 µM): 0.574
- relative viability (Salubrinal + Dasatinib; first compound 2.53 µM): 0.465
- relative viability (Salubrinal + Dasatinib; first compound 8 µM): 0.422
